Assay results published in patent US20150147403A1, “DERMATOLOGICAL COMPOSITION COMPRISING OLEOSOMES AND RETINOIDS, PROCESS FOR PREPARING THE SAME AND USE THEREOF” (GALDERMA RESEARCH & DEVELOPMENT, priority 2012, published 2015).

What was measured:
Assay type in all cases: physicochemical
[1] = Stability of compound A in solvents (HPLC-UV); conditions: RT / 40° C.
Method: (§1) The object of this preformulation study is to identify lipophilic and hydrophilic solvents in which compound A is soluble, and in which it is chemically stable.
The stability of the active agent was evaluated by liquid chromatography coupled to a UV detector (HPLC-UV).

[2] = Stability study on compositions 1′ and 2: assay of compound A by HPLC; conditions: under all the temperature conditions (4° C., RT, 40° C.); dissolved in the aqueous phase or in the oily liquid globules
Method: Composition 1′ of Example 2 and composition 2 of Example 3 were placed under various stability conditions: 4° C., room temperature and 40° C., for 3 months.
Compound A was assayed by HPLC. The results are expressed in mg/g.

[3] = Solubility of compound A in various oily and aqueous solvents
From the text: as §1

[4] = in Caprylic/capric acid triglycerides (Miglyol 812N)
[5] = in PPG-15 stearyl ether (Arlamol E PSE15)
[6] = in Propylene glycol / absolute ethanol (20/80)

CC(C)(C)c1cc(-c2cc(-c3ccc(C(=O)O)cc3)ccc2OCCO)ccc1N1CCCC1 [Compound A, 3″-tert-Butyl-4′-(2-hydroxyethoxy)-4″-pyrrolidin-1-yl-[1,1′;3′,1″]-terphenyl-4-carboxylic acid]
Stability ([1]; in Absolute ethanol): 3 months RT / 40 °C | Stability [1, 4]: 6 months RT / 40 °C | Stability [1, 5]: 6 months RT / 40 °C | Stability ([1]; in Phenoxyethanol): 6 months RT / 40 °C | Stability [1, 6]: 6 months RT / 40 °C | Stability ([1]; in Propylene glycol): 3 months RT / 40 °C | Chemical stability of compound A in the compositions [2]: 3 months | Maximum solubility (% m/m) ([3]; in Absolute ethanol): 0.92 % m/m | Maximum solubility (% m/m) [3, 4]: 0.019 % m/m | Maximum solubility (% m/m) [3, 5]: 0.292 % m/m | Maximum solubility (% m/m) ([3]; in Phenoxyethanol): 1.957 % m/m | Maximum solubility (% m/m) ([3]; in Propylene glycol): 0.11 % m/m | Maximum solubility (% m/m) [3, 6]: 1.08 % m/m
